In publication PMC5955799 (ACS chemical neuroscience, 2018):
Numbered stars: 1 amine (or outer) side, 2 acyl side, 3 side chain; on linkers, the order of the positions; unused ones are H or OH. Square brackets hold non-standard residues; d marks the D form. Peptide text beside a SMILES is read from it. X1 = C#Cc1cccc(-c2cn(C[C@H](N[*:1])C(=O)[*:2])nn2)c1; X2 = C#Cc1cccc(-c2cnnn2C[C@H](N[*:1])C(=O)[*:2])c1

Assays:
[1] = target: mMC4R (Mus musculus, UniProt P56450); experiment: AlphaScreen cAMP agonist assay in HEK293 cells stably expressing mMC4R; settings: for Fold diff (mMC4R): decrease in agonist potency compared to peptide 1
Chain of mMC4R (P56450 whole entry): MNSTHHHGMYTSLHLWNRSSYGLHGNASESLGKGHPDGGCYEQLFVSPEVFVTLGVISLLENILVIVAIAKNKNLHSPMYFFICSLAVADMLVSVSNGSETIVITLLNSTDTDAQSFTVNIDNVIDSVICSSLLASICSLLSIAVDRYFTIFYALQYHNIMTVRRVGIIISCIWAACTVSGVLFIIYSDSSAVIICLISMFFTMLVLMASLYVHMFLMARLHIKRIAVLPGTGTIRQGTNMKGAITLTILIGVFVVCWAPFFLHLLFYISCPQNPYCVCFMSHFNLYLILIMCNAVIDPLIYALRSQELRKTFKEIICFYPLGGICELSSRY

[2] = target: mMC5R (Mus musculus, UniProt P41149); experiment: AlphaScreen cAMP agonist assay in HEK293 cells stably expressing mMC5R; settings: for Fold diff (mMC5R): decrease in agonist potency compared to peptide 1
Chain of mMC5R (P41149 whole entry): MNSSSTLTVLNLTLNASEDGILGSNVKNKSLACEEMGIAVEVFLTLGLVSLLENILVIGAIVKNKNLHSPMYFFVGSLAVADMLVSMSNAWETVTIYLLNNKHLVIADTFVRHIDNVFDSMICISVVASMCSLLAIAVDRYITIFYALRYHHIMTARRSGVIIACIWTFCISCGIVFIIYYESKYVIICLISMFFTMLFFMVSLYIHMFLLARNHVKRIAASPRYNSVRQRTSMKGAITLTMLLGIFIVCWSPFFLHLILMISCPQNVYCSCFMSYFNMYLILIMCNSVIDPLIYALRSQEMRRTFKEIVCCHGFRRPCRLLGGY

[3] = target: mMC3R (Mus musculus, UniProt P33033); experiment: AlphaScreen cAMP agonist assay in HEK293 cells stably expressing mMC3R; settings: for Fold diff (mMC3R): decrease in agonist potency compared to peptide 1
Chain of mMC3R (P33033 whole entry): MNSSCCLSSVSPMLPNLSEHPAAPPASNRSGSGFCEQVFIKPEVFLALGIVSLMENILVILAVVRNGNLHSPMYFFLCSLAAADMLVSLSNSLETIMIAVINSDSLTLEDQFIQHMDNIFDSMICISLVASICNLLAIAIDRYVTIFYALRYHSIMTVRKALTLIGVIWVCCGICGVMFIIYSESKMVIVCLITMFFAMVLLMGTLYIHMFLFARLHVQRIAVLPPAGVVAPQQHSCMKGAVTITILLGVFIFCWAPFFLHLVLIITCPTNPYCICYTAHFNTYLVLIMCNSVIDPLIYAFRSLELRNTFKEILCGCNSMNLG

[4] = target: mMC1R (Mus musculus, UniProt Q01727); experiment: AlphaScreen cAMP agonist assay in HEK293 cells stably expressing mMC1R; settings: for Fold diff (mMC1R): decrease in agonist potency compared to peptide 1
Chain of mMC1R (Q01727 whole entry): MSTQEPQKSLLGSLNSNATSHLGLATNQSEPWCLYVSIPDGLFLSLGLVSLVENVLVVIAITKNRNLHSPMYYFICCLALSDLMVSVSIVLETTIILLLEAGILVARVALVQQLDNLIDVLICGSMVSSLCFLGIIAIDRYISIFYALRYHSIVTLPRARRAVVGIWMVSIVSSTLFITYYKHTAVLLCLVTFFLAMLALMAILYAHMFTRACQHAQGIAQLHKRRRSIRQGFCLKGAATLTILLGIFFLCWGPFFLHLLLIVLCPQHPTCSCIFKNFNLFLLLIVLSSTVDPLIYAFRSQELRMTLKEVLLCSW

EC50 [1] [nM] | Fold diff (mMC4R) [1] [fold] | EC50 [2] [nM] | Fold diff (mMC5R) [2] [fold] | EC50 [3] [nM] | Fold diff (mMC3R) [3] [fold] | EC50 [4] [nM] | Fold diff (mMC1R) [4] [fold] | Compound
1520 ± 328 | 3540 | 294 ± 4.8 | 122 | 1460 ± 245 | 665 | 802 ± 227 | 5728 | C#Cc1cccc(-c2cn(C[C@H](NC(=O)[C@H](Cc3ccccc3)NC(=O)[C@H](C)NC(=O)[C@H](CC(N)=O)NC(=O)[C@H](Cc3c[nH]c4ccccc34)NC(=O)[C@H](CCCNC(=N)N)NC(=O)[C@@H](Cc3ccccc3)NC(=O)[C@H](Cc3c[nH]cn3)NC(=O)[C@H](Cn3cc(-c4cccc(C#C)c4)nn3)NC(=O)[C@@H](N)Cc3ccc(O)cc3)C(=O)N[C@@H](Cc3ccc(O)cc3)C(N)=O)nn2)c1 [Peptide 9] (H-Y[X1]H[dF]RWNAF[X1]Y-NH2)
142 ± 30 | 330 | 107 ± 17 | 45 | 404 ± 52 | 184 | 116 ± 40 | 829 | C#Cc1cccc(-c2cnnn2C[C@H](NC(=O)[C@H](Cc2ccccc2)NC(=O)[C@H](C)NC(=O)[C@H](CC(N)=O)NC(=O)[C@H](Cc2c[nH]c3ccccc23)NC(=O)[C@H](CCCNC(=N)N)NC(=O)[C@@H](Cc2ccccc2)NC(=O)[C@H](Cc2c[nH]cn2)NC(=O)[C@H](Cn2nncc2-c2cccc(C#C)c2)NC(=O)[C@@H](N)Cc2ccc(O)cc2)C(=O)N[C@@H](Cc2ccc(O)cc2)C(N)=O)c1 [Peptide 12] (H-Y[X2]H[dF]RWNAF[X2]Y-NH2)
0.43 ± 0.13 | – | 2.4 ± 0.31 | – | 2.2 ± 0.58 | – | 0.14 ± 0.01 | – | C[C@@H]1NC(=O)[C@H](CC(N)=O)NC(=O)[C@H](Cc2c[nH]c3ccccc23)NC(=O)[C@H](CCCN=C(N)N)NC(=O)[C@@H](Cc2ccccc2)NC(=O)[C@H](Cc2cnc[nH]2)NC(=O)[C@@H](NC(=O)[C@@H](N)Cc2ccc(O)cc2)CSSC[C@@H](C(=O)N[C@@H](Cc2ccc(O)cc2)C(N)=O)NC(=O)[C@H](Cc2ccccc2)NC1=O [Peptide 1, Tyr-c[Cys-His-DPhe-Arg-Trp-Asn-Ala-Phe-Cys]-Tyr-NH2, reference compound]
